Results on 2 compounds are retold here after patent US11415579B2, “Assay for measuring a rate of reaction between a target and a ligand candidate” (Imperial College Innovations Ltd., priority 2016, dated 2022).

Assay [1] can be described thus: Kinetic thiol consumption assay with model thiol glutathione. Type of assay: physicochemical. The arrangement: Rate constant with glutathione (k(GSH)): unit not given here. The following applies: for Rate constant with glutathione (k(GSH)): 500 μM ligand, 5 μM thiol, phosphate buffer pH 8; for Rate constant with Glutathione: Protein: Glutathione, cysteine position NA, in h-1. Put shortly:
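First, 5 μM glutathione in degassed phosphate buffer (pH 8) receives immobilized TCEP beads (2% v/v). Then acrylamide is added and plates incubate 1 h at room temperature. Finally, fluorescence (380/470 nm) is normalized and fitted to first-order decay for rate constants.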

A further assay deals with T1, Cdk2(C177A, F80C) (Homo sapiens, UniProt P24941, C177A/F80C).
T1 construct: poly-histidine; made in house; host or cells: E. coli
As to the kind of experiment: Kinetic thiol consumption assay with Cdk2 mutant F80C, incl. kobs versus concentration (Kd, k2). The following applies: additional mutation C177A; for Rate constant with Cdk2 F80C: Protein: Cdk2, cysteine position F80C, in h^-1. The arrangement: key to Rate enhancement, Cdk2 F80C: Cdk2 rate constant divided by model-thiol rate constant. The format is binding. Put shortly:
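His-tagged Cdk2(C177A/F80C) from E. coli or model thiol, 5 μM in degassed phosphate buffer pH 8 with TCEP beads, reacted with acrylamide ligands; fluorescence (ex/em 380/470 nm) normalized to DMSO control and fitted to first-order decay for kobs. Kd and k2 obtained from hyperbolic fit of kobs versus ligand concentration.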

The target of assay [2] is T2, human cyclin-dependent kinase 2 (Cdk2) (Homo sapiens, UniProt P24941).
T2 construct: poly-histidine; made in house; host or cells: E. coli
The assay can be described thus: Kinetic thiol consumption assay with wild type Cdk2 (C177). The format is binding. The arrangement: key to Rate enhancement, Cdk2 WT: k(Cdk2) divided by k(model thiol); Rate constant with Cdk2 (k(Cdk2)): unit not given here. The following applies: for Rate constant with Cdk2 (k(Cdk2)): 500 μM ligand, 5 μM thiol, phosphate buffer pH 8; for Rate enhancement, Cdk2 WT: no additional mutations; for Rate constant with Cdk2 WT: Protein: Cdk2, cysteine position WT, in h^-1; for k(Cdk2)/k(Cdk2_mut) rate enhancement: model thiol Cdk2[C177A, F80C, K278C]; for k(Cdk2)/k(GSH) rate enhancement: model thiol glutathione. The procedure, abridged: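 Rate constants came from first-order exponential decay fits of normalized fluorescence against time, with thiol (5 μM) in degassed pH 8 phosphate buffer containing 2% v/v TCEP beads and reads after 1 h at room temperature.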

The target of the next assay is T3, Cdk2(T182C) (C177A) (Homo sapiens, UniProt P24941, C177A/T182C).
T3 construct: poly-histidine; made in house; host or cells: E. coli
The assay can be described thus: Kinetic thiol consumption assay with Cdk2 mutant T182C. The format is binding. The arrangement: key to Rate enhancement, Cdk2 T182C: rate constant with Cdk2 ÷ rate constant with model thiol (fold). The following applies: additional mutation C177A; for Rate constant with Cdk2 T182C: Protein: Cdk2, cysteine position T182C, in h^-1. The procedure, abridged:
(§1)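 Thiol consumption was monitored kinetically using 5 μM Cdk2 (C177A plus one introduced cysteine) in degassed phosphate buffer at pH 8 with TCEP beads. Plates were kept 1 h at room temperature before fluorescence reading, and rate constants came from exponential decay fitting.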

The target of a further assay is T4, Cdk2[C177A, F80C, K278C] (Homo sapiens, UniProt P24941, C177A/F80C/K278C).
T4 construct: poly-histidine; made in house; host or cells: E. coli
The assay can be described thus: Kinetic thiol consumption assay with mutant Cdk2 as model thiol. Type of assay: binding. Details: unit not given here. The following applies: 500 μM ligand, 5 μM thiol, phosphate buffer pH 8. As to the method: A library of 120 acrylamides was screened against a) human cyclin-dependent kinase 2 (Cdk2, which contains one surface exposed cysteine residue—C177), prepared by cloning cDNA into the pRSETA bacterial expression vector to generate a poly-histidine tagged Cdk2 fusion that was purified from E. coli using standard techniques, and b) a model thiol (specific details are given below). The structures of these 120 acrylamides are set out in Table 1, above.
To wells containing 150 μL thiol (Cdk2 or model thiol) (5 μM) in degassed phosphate buffer (pH 8) was added immobilized TCEP beads (2% v/v).
After incubation of the fluorescence plates for 1 hour at room temperature, fluorescence measurements (excitation/emission of 380/470 nm) were taken on a PerkinElmer EnVision multilabel plate reader and processed with EnVision Workstation version 1.12.
Fluorescence measurements were normalized against a DMSO/thiol only control and plotted against time.
Rate constants were calculated using GraphPad software Prism version 6 by fitting a first order exponential decay to the data. The rate constant for each acrylamide with Cdk2 was divided by the rate constant for that fragment with the model thiol to provide the rate enhancement for each ligand candidate.
The model thiol used in Example 2 is a mutant form of human Cdk2 (C177A, F80C, K278C) which contains two engineered surface exposed cysteine residues. Mutations were introduced by site-directed mutagenesis and the resulting cDNA was cloned into the pRSETA bacterial expression vector to generate a poly-histidine tagged Cdk2 fusion that was purified from E. coli using standard techniques.

The target in another assay is T5, Cdk2(H71C) (C177A) (Homo sapiens, UniProt P24941, C177A/H71C).
T5 construct: poly-histidine; made in house; host or cells: E. coli
As to the kind of experiment: Kinetic thiol consumption assay with Cdk2 mutant H71C. Type of assay: binding. The arrangement: key to Rate enhancement, Cdk2 H71C: rate constant with Cdk2 ÷ rate constant with model thiol (fold). The following applies: additional mutation C177A. The procedure, abridged: as §1

A further assay concerns the target T6, Cdk2(S181C) (C177A) (Homo sapiens, UniProt P24941, C177A/S181C).
T6 construct: poly-histidine; made in house; host or cells: E. coli
The assay can be described thus: Kinetic thiol consumption assay with Cdk2 mutant S181C. The arrangement: key to Rate enhancement, Cdk2 S181C: rate constant with Cdk2 ÷ rate constant with model thiol (fold). The format is binding. The following applies: additional mutation C177A; for Rate constant with Cdk2 S181C: Protein: Cdk2, cysteine position S181C, in h^-1. Put shortly: as §1

Another assay addresses T7, Cdk2(N272C) (C177A) (Homo sapiens, UniProt P24941, C177A/N272C).
T7 construct: poly-histidine; made in house; host or cells: E. coli
As to the kind of experiment: Kinetic thiol consumption assay with Cdk2 mutant N272C. The format is binding. Details: key to Rate enhancement, Cdk2 N272: rate constant with Cdk2 ÷ rate constant with model thiol (fold). The following applies: for Rate enhancement, Cdk2 N272: Cdk2 N272, additional mutation C177A; for Rate constant with Cdk2 N272C: Protein: Cdk2, cysteine position N272C, additional mutation C177A, in h^-1. Put shortly: as §1

The next assay addresses T8, Cdk2(S276C) (C177A) (Homo sapiens, UniProt P24941, C177A/S276C).
T8 construct: poly-histidine; made in house; host or cells: E. coli
The assay can be described thus: Kinetic thiol consumption assay with Cdk2 mutant S276C. The arrangement: key to Rate enhancement, Cdk2 S276C: rate constant with Cdk2 ÷ rate constant with model thiol (fold). Type of assay: binding. The following applies: additional mutation C177A; for Rate constant with Cdk2 S276C: Protein: Cdk2, cysteine position S276C, in h^-1. The procedure, abridged:
as §1

The target of a further assay is T9, Cdk2(R122C) (C177A) (Homo sapiens, UniProt P24941, C177A/R122C).
T9 construct: poly-histidine; made in house; host or cells: E. coli
The assay can be described thus: Kinetic thiol consumption assay with Cdk2 mutant R122C. The format is binding. The arrangement: key to Rate enhancement, Cdk2 R122C: rate constant with Cdk2 ÷ rate constant with model thiol (fold). The following applies: additional mutation C177A; for Rate constant with Cdk2 R122C: Protein: Cdk2, cysteine position R122C, in h-1. The procedure, abridged:
as §1

In the case of `C=CC(=O)NCC1CCCN1S(=O)(=O)c1ccc(C(=O)O)cc1` (stereo not shown) [BN122], in [1], the “Rate constant with glutathione (k(GSH))” value was 0.00283 and the “Rate constant with Glutathione” value turned out to be 0.005992. Further, at Cdk2(C177A, F80C), the “Rate enhancement, Cdk2 F80C” value is 0.3899 and the “Rate constant with Cdk2 F80C” value came to 0.002336. In addition, in assay [2], the “Rate constant with Cdk2 (k(Cdk2))” value came out at 0.00219; the “Rate enhancement, Cdk2 WT” value is reported as 0.3657; the “Rate constant with Cdk2 WT” value turned out to be 0.002191; the “k(Cdk2)/k(Cdk2_mut) rate enhancement” value is reported as 1.879. In assay [2], the “k(Cdk2)/k(GSH) rate enhancement” value stood at 0.7753. Moreover, on Cdk2(T182C) (C177A), the “Rate enhancement, Cdk2 T182C” value worked out at 2.502 and the “Rate constant with Cdk2 T182C” value amounted to 0.01499. Further, the “Rate constant with Cdk2[C177A, F80C, K278C] (k(Cdk2_mut))” value on Cdk2[C177A, F80C, K278C] is 0.00117. For the same compound, on Cdk2(H71C) (C177A), the “Rate enhancement, Cdk2 H71C” value was 0. Moreover, at Cdk2(S181C) (C177A), the “Rate enhancement, Cdk2 S181C” value was determined as 0.9743 and the “Rate constant with Cdk2 S181C” value is given as 0.005838. For the same compound, on Cdk2(N272C) (C177A), the “Rate enhancement, Cdk2 N272” value was determined as 0.7423 and the “Rate constant with Cdk2 N272C” value amounted to 0.004448. Besides, on Cdk2(S276C) (C177A), the “Rate enhancement, Cdk2 S276C” value is listed as 0.1643 and the “Rate constant with Cdk2 S276C” value is on record as 0.0009842. Also, on Cdk2(R122C) (C177A), the “Rate enhancement, Cdk2 R122C” value is 0.4317 and the “Rate constant with Cdk2 R122C” value turned out to be 0.002587.

Take `C=CC(=O)NCc1ccc(F)cc1` [BN-62]: in assay [1], the “Rate constant with glutathione (k(GSH))” value is given as 0.00157 and the “Rate constant with Glutathione” value was found to be 0.001539. Further, on Cdk2(C177A, F80C), the “Rate enhancement, Cdk2 F80C” value was determined as 0.6901 and the “Rate constant with Cdk2 F80C” value is given as 0.001062. In assay [2], the “Rate constant with Cdk2 (k(Cdk2))” value was 0.0019; the “Rate enhancement, Cdk2 WT” value amounted to 1.86; the “Rate constant with Cdk2 WT” value came to 0.002863; the “k(Cdk2)/k(Cdk2_mut) rate enhancement” value is given as 1.136. Further, the “k(Cdk2)/k(GSH) rate enhancement” value in [2] came to 1.213. On Cdk2(T182C) (C177A), the “Rate enhancement, Cdk2 T182C” value came out at 0.679 and the “Rate constant with Cdk2 T182C” value is 0.001045. The “Rate constant with Cdk2[C177A, F80C, K278C] (k(Cdk2_mut))” value at Cdk2[C177A, F80C, K278C] was found to be 0.00167. The “Rate enhancement, Cdk2 H71C” value on Cdk2(H71C) (C177A) is listed as 2.5393E−11. Besides, the “Rate constant with Cdk2 H71C” value on Cdk2(H71C) (C177A) (Protein: Cdk2, cysteine position H71C, in h^-1) worked out at 3.908E−14. At Cdk2(S181C) (C177A), the “Rate enhancement, Cdk2 S181C” value stood at 1.1306E−11 and the “Rate constant with Cdk2 S181C” value came out at 1.74E−14. Also, on Cdk2(N272C) (C177A), the “Rate enhancement, Cdk2 N272” value is 1.006 and the “Rate constant with Cdk2 N272C” value is recorded as 0.001549. Also, on Cdk2(S276C) (C177A), the “Rate enhancement, Cdk2 S276C” value is on record as 0.7693 and the “Rate constant with Cdk2 S276C” value is on record as 0.001184. On Cdk2(R122C) (C177A), the “Rate enhancement, Cdk2 R122C” value worked out at 0.125 and the “Rate constant with Cdk2 R122C” value is 0.0001923.
